# Data reported in PMC4554294 (Biochemistry and Biophysics Reports, 2015).
# Assays:
# Assay in all cases: saturation transfer difference
# Assay type in all cases: binding
# [1] = target: T1, sucrose phosphorylase (LmSPase) (Leuconostoc mesenteroides, UniProt Q59495, F52A/E237A)
# T1 sequence (Q59495 1-490 F52A/E237A): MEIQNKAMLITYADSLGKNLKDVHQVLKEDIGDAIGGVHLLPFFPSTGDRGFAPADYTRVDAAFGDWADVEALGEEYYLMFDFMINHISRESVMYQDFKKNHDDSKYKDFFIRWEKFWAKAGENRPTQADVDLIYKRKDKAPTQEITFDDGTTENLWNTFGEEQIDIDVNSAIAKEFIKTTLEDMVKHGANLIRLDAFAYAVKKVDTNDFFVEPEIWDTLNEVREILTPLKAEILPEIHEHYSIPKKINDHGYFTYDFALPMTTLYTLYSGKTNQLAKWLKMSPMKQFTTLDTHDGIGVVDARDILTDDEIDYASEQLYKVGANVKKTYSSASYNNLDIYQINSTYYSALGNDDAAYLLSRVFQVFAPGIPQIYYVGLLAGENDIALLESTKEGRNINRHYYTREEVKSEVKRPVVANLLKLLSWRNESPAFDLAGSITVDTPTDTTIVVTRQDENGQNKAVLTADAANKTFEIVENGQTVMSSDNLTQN
# [2] = target: T2, sucrose phosphorylase (LmSPase) (Leuconostoc mesenteroides, UniProt Q59495, F52A/D196A)
# T2 sequence (Q59495 1-490 F52A/D196A): T1 sequence (Q59495 1-490 F52A/E237A)
# [3] = target: T3, sucrose phosphorylase (LmSPase) (Leuconostoc mesenteroides, UniProt Q59495)
# T3 sequence (Q59495 1-490): T1 sequence (Q59495 1-490 F52A/E237A)
# [4] = target: T4, sucrose phosphorylase (LmSPase) (Leuconostoc mesenteroides, UniProt Q59495, F52A)
# T4 sequence (Q59495 1-490 F52A): T1 sequence (Q59495 1-490 F52A/E237A)
# [5] = target: T5, sucrose phosphorylase (LmSPase) (Leuconostoc mesenteroides, UniProt Q59495, F52A/D295A)
# T5 sequence (Q59495 1-490 F52A/D295A): T1 sequence (Q59495 1-490 F52A/E237A)
smiles,measurement,setting,value
"O=P(O)(O)O[C@H]1O[C@H](CO)[C@@H](O)[C@H](O)[C@H]1O [αGlc 1-P, α-D-glucose 1-phosphate]",saturation transfer difference (STD) NMR,[1],suggesting that binding of αGlc 1-P did take place in each double mutant
same,saturation transfer difference (STD) NMR,[2],Incubation of either double mutant with αGlc 1-P gave rise to distinct STD effects in the ligand
same,"saturation transfer difference (STD) NMR, 7 μM enzyme, 5.0 mM ligand",[3],Binding of αGlc 1-P to LmSPase resulted in a characteristic pattern of STD effects
same,saturation transfer difference (STD) NMR,[4],STD effects in αGlc 1-P were considerably weaker in F52A mutant than in wild-type enzyme
same,saturation transfer difference (STD) NMR; steady-state kinetics,[5],STD signal intensities were higher on binding of αGlc 1-P to F52A_D295A mutant as compared to wild-type
